Tested on: sugarcane
Test: Sugarcane flowering inhibition field trials, floral induction rated on UFSCar scale
Type: in vivo
Experimental: In order to explore the activity of florpyrauxifen as flowering inhibitor in sugarcane, field studies were carried out. Florpyrauxifen-benzyl was tested at rates from 2 to 20 grams active ingredient per hectare (g ai/ha) and compared to Ethrel® 720 (Bayer), the standard treatment. The flowering inhibition effect was assessed by checking the floral induction in sugarcane through the percentage scale recommended by UFSCar (Federal University of Sao Carlos, Sao Paulo, Brazil).
Four trials were carried out in sugarcane where florpyrauxifen-benzyl (Rinskor®), applied at a rate of 2 to 20 g ai/ha, was compared to ethephon (Ethrel® 720) applied at a rate of 475 g ai/ha. Control plots of untreated sugarcane were also evaluated. Rinskor® and Ethrel® 720 were diluted in water and a single application for each study (backpack sprayer) was performed delivering 50 L of spray solution per ha at the reproductive stage of sugarcane and at a maximum 150 days before harvest. The activity of florpyrauxifen-benzyl as a flowering inhibitor was measured via assessments (Scale of flowering inhibition—see chart 1) performed at 0, 14, 30, 45, 60, 75, 90, 120, 150 days after application, or up to harvest time. The assessments were measured in sugarcane stems, rating the flowering induction according to the UFSCar scale shown below. Significance of treatment effect was evaluated with F-approximate test (α=0.1) and least square means from different treatments were compared with Tukey's test.

COc1c(Cl)ccc(-c2nc(C(=O)OCc3ccccc3)c(Cl)c(N)c2F)c1F [Rinskor, florpyrauxifen-benzyl]
55.0%: Frequency 4/1 (50%) (Table 2, 90 DAA, 7 g ai/ha)
92.5%: Frequency 1/1 (0%) (Table 2, 75 DAA, 2 g ai/ha) | Frequency 1/1 (0%) (Table 2, 75 DAA, 15 g ai/ha)
67.5%: Frequency 4/1 (50%) (Table 2, 90 DAA, 5 g ai/ha)
39.8%: % Referring to Scale (Table 2, 90 DAA, 15 g ai/ha)
52.5%: Frequency 4/1 (50%) (Table 2, 90 DAA, 20 g ai/ha)
2.5%: Frequency 2/1 (15%) (Table 2, 75 DAA, 10 g ai/ha)
60.0%: Frequency 4/1 (50%) (Table 2, 90 DAA, 15 g ai/ha)
12.8%: % Referring to Scale (Table 1, 120 DAA, 20 g ai/ha)
0.0%: Frequency 3/1 (30%) (Table 1, 120 DAA, 20 g ai/ha) | Frequency 4/1 (50%) (Table 1, 120 DAA, 20 g ai/ha) | Frequency 4/2 (80%) (Table 1, 120 DAA, 20 g ai/ha) | Frequency 4/3 (90%) (Table 1, 120 DAA, 20 g ai/ha) | Frequency 4/4 (100%) (Table 1, 120 DAA, 20 g ai/ha) | Frequency 3/1 (30%) (Table 2, 75 DAA, 2 g ai/ha) | Frequency 4/1 (50%) (Table 2, 75 DAA, 2 g ai/ha) | Frequency 4/2 (80%) (Table 2, 75 DAA, 2 g ai/ha) | Frequency 4/3 (90%) (Table 2, 75 DAA, 2 g ai/ha) | Frequency 4/4 (100%) (Table 2, 75 DAA, 2 g ai/ha) | Frequency 3/1 (30%) (Table 2, 75 DAA, 5 g ai/ha) | Frequency 4/1 (50%) (Table 2, 75 DAA, 5 g ai/ha) | Frequency 4/2 (80%) (Table 2, 75 DAA, 5 g ai/ha) | Frequency 4/3 (90%) (Table 2, 75 DAA, 5 g ai/ha) | Frequency 4/4 (100%) (Table 2, 75 DAA, 5 g ai/ha) | Frequency 3/1 (30%) (Table 2, 75 DAA, 7 g ai/ha) | Frequency 4/1 (50%) (Table 2, 75 DAA, 7 g ai/ha) | Frequency 4/2 (80%) (Table 2, 75 DAA, 7 g ai/ha) | Frequency 4/3 (90%) (Table 2, 75 DAA, 7 g ai/ha) | Frequency 4/4 (100%) (Table 2, 75 DAA, 7 g ai/ha) | Frequency 3/1 (30%) (Table 2, 75 DAA, 10 g ai/ha) | Frequency 4/1 (50%) (Table 2, 75 DAA, 10 g ai/ha) | Frequency 4/2 (80%) (Table 2, 75 DAA, 10 g ai/ha) | Frequency 4/3 (90%) (Table 2, 75 DAA, 10 g ai/ha) | Frequency 4/4 (100%) (Table 2, 75 DAA, 10 g ai/ha) | Frequency 3/1 (30%) (Table 2, 75 DAA, 15 g ai/ha) | Frequency 4/1 (50%) (Table 2, 75 DAA, 15 g ai/ha) | Frequency 4/2 (80%) (Table 2, 75 DAA, 15 g ai/ha) | Frequency 4/3 (90%) (Table 2, 75 DAA, 15 g ai/ha) | Frequency 4/4 (100%) (Table 2, 75 DAA, 15 g ai/ha) | Frequency 3/1 (30%) (Table 2, 75 DAA, 20 g ai/ha) | Frequency 4/1 (50%) (Table 2, 75 DAA, 20 g ai/ha) | Frequency 4/2 (80%) (Table 2, 75 DAA, 20 g ai/ha) | Frequency 4/3 (90%) (Table 2, 75 DAA, 20 g ai/ha) | Frequency 4/4 (100%) (Table 2, 75 DAA, 20 g ai/ha) | Frequency 1/1 (0%) (Table 2, 90 DAA, 2 g ai/ha) | Frequency 2/1 (15%) (Table 2, 90 DAA, 2 g ai/ha) | Frequency 4/3 (90%) (Table 2, 90 DAA, 2 g ai/ha) | Frequency 4/4 (100%) (Table 2, 90 DAA, 2 g ai/ha) | Frequency 1/1 (0%) (Table 2, 90 DAA, 5 g ai/ha) | Frequency 2/1 (15%) (Table 2, 90 DAA, 5 g ai/ha) | Frequency 4/2 (80%) (Table 2, 90 DAA, 5 g ai/ha) | Frequency 4/3 (90%) (Table 2, 90 DAA, 5 g ai/ha) | Frequency 4/4 (100%) (Table 2, 90 DAA, 5 g ai/ha) | Frequency 1/1 (0%) (Table 2, 90 DAA, 7 g ai/ha) | Frequency 2/1 (15%) (Table 2, 90 DAA, 7 g ai/ha) | Frequency 4/3 (90%) (Table 2, 90 DAA, 7 g ai/ha) | Frequency 4/4 (100%) (Table 2, 90 DAA, 7 g ai/ha) | Frequency 1/1 (0%) (Table 2, 90 DAA, 10 g ai/ha) | Frequency 4/2 (80%) (Table 2, 90 DAA, 10 g ai/ha) | Frequency 4/3 (90%) (Table 2, 90 DAA, 10 g ai/ha) | Frequency 4/4 (100%) (Table 2, 90 DAA, 10 g ai/ha) | Frequency 1/1 (0%) (Table 2, 90 DAA, 15 g ai/ha) | Frequency 4/2 (80%) (Table 2, 90 DAA, 15 g ai/ha) | Frequency 4/3 (90%) (Table 2, 90 DAA, 15 g ai/ha) | Frequency 4/4 (100%) (Table 2, 90 DAA, 15 g ai/ha) | Frequency 1/1 (0%) (Table 2, 90 DAA, 20 g ai/ha) | Frequency 4/3 (90%) (Table 2, 90 DAA, 20 g ai/ha) | Frequency 4/4 (100%) (Table 2, 90 DAA, 20 g ai/ha) | Frequency 1/1 (0%) (Table 2, 120 DAA, 2 g ai/ha) | Frequency 2/1 (15%) (Table 2, 120 DAA, 2 g ai/ha) | Frequency 3/1 (30%) (Table 2, 120 DAA, 2 g ai/ha) | Frequency 4/1 (50%) (Table 2, 120 DAA, 2 g ai/ha)
30.0%: Frequency 3/1 (30%) (Table 2, 90 DAA, 20 g ai/ha)
42.5%: Frequency 4/1 (50%) (Table 2, 90 DAA, 10 g ai/ha)
44.8%: % Referring to Scale (Table 2, 90 DAA, 7 g ai/ha)
5.0%: Frequency 2/1 (15%) (Table 2, 75 DAA, 5 g ai/ha) | Frequency 2/1 (15%) (Table 2, 75 DAA, 7 g ai/ha) | Frequency 2/1 (15%) (Table 2, 75 DAA, 20 g ai/ha) | Frequency 2/1 (15%) (Table 2, 90 DAA, 20 g ai/ha) | Frequency 4/2 (80%) (Table 2, 120 DAA, 2 g ai/ha)
1.1%: % Referring to Scale (Table 2, 75 DAA, 2 g ai/ha) | % Referring to Scale (Table 2, 75 DAA, 15 g ai/ha)
95.0%: Frequency 1/1 (0%) (Table 2, 75 DAA, 5 g ai/ha) | Frequency 1/1 (0%) (Table 2, 75 DAA, 7 g ai/ha) | Frequency 1/1 (0%) (Table 2, 75 DAA, 20 g ai/ha)
12.5%: Frequency 4/2 (80%) (Table 2, 90 DAA, 20 g ai/ha)
46.0%: % Referring to Scale (Table 2, 90 DAA, 20 g ai/ha)
95.8%: % Referring to Scale (Table 2, 120 DAA, 2 g ai/ha)
0.8%: % Referring to Scale (Table 2, 75 DAA, 5 g ai/ha) | % Referring to Scale (Table 2, 75 DAA, 7 g ai/ha) | % Referring to Scale (Table 2, 75 DAA, 20 g ai/ha)
37.5%: Frequency 3/1 (30%) (Table 2, 90 DAA, 7 g ai/ha)
15.0%: Frequency 1/1 (0%) (Table 1, 120 DAA, 20 g ai/ha) | Frequency 2/1 (15%) (Table 2, 90 DAA, 15 g ai/ha)
97.5%: Frequency 1/1 (0%) (Table 2, 75 DAA, 10 g ai/ha)
85.0%: Frequency 2/1 (15%) (Table 1, 120 DAA, 20 g ai/ha)
7.5%: Frequency 2/1 (15%) (Table 2, 75 DAA, 2 g ai/ha) | Frequency 2/1 (15%) (Table 2, 75 DAA, 15 g ai/ha) | Frequency 4/2 (80%) (Table 2, 90 DAA, 7 g ai/ha) | Frequency 2/1 (15%) (Table 2, 90 DAA, 10 g ai/ha)
0.4%: % Referring to Scale (Table 2, 75 DAA, 10 g ai/ha)
20.0%: Frequency 3/1 (30%) (Table 2, 90 DAA, 2 g ai/ha)
50.0%: Frequency 3/1 (30%) (Table 2, 90 DAA, 10 g ai/ha)
25.0%: Frequency 3/1 (30%) (Table 2, 90 DAA, 15 g ai/ha)
60.3%: % Referring to Scale (Table 2, 90 DAA, 2 g ai/ha)
43.5%: % Referring to Scale (Table 2, 90 DAA, 5 g ai/ha)
62.5%: Frequency 4/4 (100%) (Table 2, 120 DAA, 2 g ai/ha)
47.5%: Frequency 4/2 (80%) (Table 2, 90 DAA, 2 g ai/ha)
32.5%: Frequency 4/1 (50%) (Table 2, 90 DAA, 2 g ai/ha) | Frequency 3/1 (30%) (Table 2, 90 DAA, 5 g ai/ha) | Frequency 4/3 (90%) (Table 2, 120 DAA, 2 g ai/ha)
37.4%: % Referring to Scale (Table 2, 90 DAA, 10 g ai/ha)
96.5%: % Referring to Scale (Table 2, 120 DAA, 5 g ai/ha)
